Tests used:
[1] = system: HFDPC cell lines; assay: Cell proliferation in dermal papilla cells (MTT assay); format: cell-based, human; conditions: treated for 3 and 6 days, 25 μg/ml and 50 μg/ml
Experimental: Based on the results of the dermal papilla cell toxicity test confirmed above, the cell proliferation effect of the Hydrangea serrata extract and hydrangenol obtained in Examples 1 and 2 was confirmed. HFDPC cell lines were seeded into a 96-well plate at a concentration of 1.0×10^3 cells/well and incubated in a CO2 incubator conditioned at 37° C., 95% humidity, and 5% CO2 for 24 hours. Subsequently, after treatment with samples at each concentration, cell proliferation was measured by MTT assay after 1, 3, and 6 days of incubation. More specifically, after treatment with samples of each concentration, the incubation was proceeded for 24, 72, and 144 hours, and then each cell was treated with 100 μl of 0.5 mg/ml MTT solution, and after 4 hours, the solution was completely removed and the plates dissolved in DMSO were measured at an absorbance of […].

[2] = system: human follicle dermal papilla cells (HFDPC); assay: Cytotoxicity in dermal papilla cells (MTT assay); format: cell-based; conditions: 24 hours
Experimental: It was confirmed whether the Hydrangea serrata extract and hydrangenol obtained according to Examples 1 and 2 were cytotoxic to human follicle dermal papilla cells (HFDPC).
HFDPC cells were cultured in follicle dermal papilla cell growth medium including supplement mix (5% fetal calf serum, 0.5% bovine pituitary extract, 0.5 μg basic fibroblast growth factor, and 2.5 mg insulin) and 1% antibiotic antimycotic solution. HDFPC cell lines were seeded into a 96-well plate at a concentration of 1.0×10^4 cells/well and incubated in a CO2 incubator conditioned at 37° C., 95% humidity, and 5% CO2 for 24 hours. Subsequently, the medium was replaced with medium without supplement mix and was treated with samples of each concentration and after 24 hours of incubation, cell viability was measured by MTT assay. The MTT assay is a method to measure the amount of formazan formed from MTT reduced by the mitochondria of living cells. More specifically, 100 μl of 0.5 mg/mL MTT solution was applied to each cell and incubated for 4 hours. Then, the solution was completely removed and the absorbance of the plate dissolved in DMSO was measured at 540 nm.

[3] = target: T1, 5α-reductase (Rattus norvegicus, UniProt P24008); assay: 5α-reductase enzyme activity inhibition (rat liver homogenate, testosterone quantified by HPLC); format: biochemical; conditions: treated at 125 μg/ml, 250 μg/ml, or 500 μg/ml; 37° C., 30 minutes; FIGS. 7A and 7B
T1 construct: After centrifuging the homogenate at 10,000 xg for 10 minutes, the supernatant was […] to prepare an enzyme solution; from tissue; host or cells: liver of 7-week-old male SD rat (10,000 x g supernatant of homogenate)
T1 sequence (P24008 1-259): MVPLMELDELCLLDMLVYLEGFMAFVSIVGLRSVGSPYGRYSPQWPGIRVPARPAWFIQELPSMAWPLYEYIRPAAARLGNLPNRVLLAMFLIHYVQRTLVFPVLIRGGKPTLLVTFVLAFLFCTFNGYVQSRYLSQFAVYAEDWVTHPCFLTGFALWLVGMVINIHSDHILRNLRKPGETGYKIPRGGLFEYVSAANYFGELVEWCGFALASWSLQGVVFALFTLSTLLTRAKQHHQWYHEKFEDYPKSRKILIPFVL
Experimental: 5α-reductase reduces testosterone to produce dihydrotestosterone (DHT). After reacting rat liver homogenate with testosterone, the ability to inhibit 5α-reductase enzyme activity was measured using a method of quantify testosterone.
First, a 7-week-old male SD rat was prepared and anesthetized using ethyl ether. After SD rats were laparotomised, the hepatic portal vein thereof was nicked, and cold STM buffer (270 mM sucrose, 10 mM Tris-HCl, pH7.5, 1 mM MgCl2, G-biosciences, USA) was injected into the left ventricle using a syringe. The injection was continued until the STM buffer was perfused into the liver and the color of the liver changed from dark red to light pink. Afterwards, the liver was removed, transferred to a beaker, cut with scissors, and homogenized after adding STM buffer in an amount three times that of the liver. After centrifuging the homogenate at 10,000 xg for 10 minutes, the supernatant was […] to prepare an enzyme solution. […] The dichloromethane layer was separated, concentrated, dissolved in 50% methanol, and quantified using high-performance chromatography. The 5α-reductase inhibition ability was calculated using the formula: 5α-reductase inhibition ability (%)=[1−(area value of sample-area value of blank sample)/(area value of test group-area value of blank sample)]×100.

## O=C1OC(c2ccc(O)cc2)Cc2cccc(O)c21 (stereo not shown) [hydrangenol, 8-hydroxy-3-(4-hydroxyphenyl)-3,4-dihydroisochromen-1-one]
[1]
  cell growth (cell proliferation by MTT): cell growth was significantly increased
[2]; 1.56, 3.12, 6.25, 12.5, 25, 50 and 100 μg/ml
  cytotoxicity (cell viability by MTT): no cytotoxicity was shown at all concentrations
[2]; concentrations of 3.12 μg/ml to 100 μg/ml
  cell growth: significantly increase cell growth
[3]
  5α-reductase inhibitory activity: 5α-reductase inhibitory activity in a concentration-dependent manner

Source: patent publication US20250090439A1, “COMPOSITION COMPRISING HYDRANGENOL AS ACTIVE INGREDIENT FOR IMPROVING HAIR OR SCALP CONDITION” (COSMAX BIO CO., LTD., priority 2021, published 2025)
